Results taken from patent US10278942B2 (PELOTON THERAPEUTICS, INC., priority 2015, dated 2019).

How the values were obtained:
[1] = target: T1, HIF-2α HIS TAG-PASB Domain (Homo sapiens, UniProt Q99814); test: HIF-2α Scintillation Proximity Assay (SPA); format: binding; conditions: read-out: Scintillation Proximity Assay IC50
T1 construct: 100 nM HIF-2α HIS TAG-PASB Domain
Outline: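 IC50 values rest on percent inhibition, where the sample signal is scaled between high and low controls. Wells contain about 100 μL: compound dispensed as 2 μL of DMSO solution, 88 μL protein-probe mix and 10 μL of beads.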

[2] = system: 786-O-Hif-Luc cells; test: Luciferase Assay (HIF responsive elements reporter); conditions: read-out: Mean Luciferase EC50 (nM), 786-O-Hif-Luc cells
Protocol: A pool of infected cells were then selected against 2 μg/mL of puromycin (P8833, Sigma) for 10 days followed by limited dilution to select single clones. […] Each concentration was tested in triplicate. After about 24 hours, luciferase activity was determined using ONE-Glo Luciferase Assay Reagent (E6110, Promega) following the manufacturer's recommended procedure. EC50 were calculated using Dotmatics software.

T1 sequence (Q99814 240-350 limits assumed): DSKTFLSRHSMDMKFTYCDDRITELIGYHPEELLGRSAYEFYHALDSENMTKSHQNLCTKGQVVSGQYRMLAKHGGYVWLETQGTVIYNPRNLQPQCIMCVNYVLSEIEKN

SMILES	IC50 [1]	EC50 [2]
Cc1cc(C#N)cc(Oc2ccc3c(c2C(F)F)[C@@H](O)C(F)(F)S3(=O)=O)c1 [Compound 392]	< 50 nM	50 to 249 nM
N#Cc1c(Oc2cc(F)cc(F)c2)ccc2c1C(O)C(F)(F)S2(=O)=O (centres unmarked) [Compound 443]	< 50 nM	250 to 1000 nM
N#CC1(COc2ccc(S(=O)(=O)C(F)(F)F)c3c2CC(F)(F)[C@H]3O)CCC1 [Compound 790]	< 50 nM	< 50 nM
O=S(=O)(c1ccc(C2CC2)c2c1C(O)C(F)(F)C2)C(F)(F)F (centres unmarked) [Compound 513]	250 to 1000 nM	> 1000 nM
N#CC1(COc2ccc(S(=O)(=O)C(F)(F)F)c3c2C[C@@H](F)[C@H]3O)CC1 [Compound 661]	< 50 nM	< 50 nM
Cc1c(Oc2cc(F)cc(C#N)c2)ccc(S(=O)(=O)C(F)(F)F)c1C=O [Compound 145]	50 to 249 nM	250 to 1000 nM
O=S1(=O)CCC(Oc2ccc(S(=O)(=O)C(F)(F)F)c3c2CC(F)(F)[C@H]3O)CC1 [Compound 721]	> 1000 nM	> 1000 nM
CCCOc1ccc(S(=O)(=O)C(F)(F)F)c2c1CC(F)(F)C2O (centres unmarked) [Compound 584]	50 to 249 nM	< 50 nM
O=S(=O)(c1ccc(OC2CCNCC2)c2c1C(O)C(F)(F)C2)C(F)(F)F (centres unmarked) [Compound 607]	< 50 nM	> 1000 nM
O=S1(=O)CC(O)c2c1ccc(Oc1cc(F)cc(Cl)c1)c2C(F)F (centres unmarked) [Compound 361]	50 to 249 nM	250 to 1000 nM
O/N=C1/c2c(C(F)(F)F)ccc(OC3CC(F)(F)C3)c2CC1(F)F [Compound 672]	50 to 249 nM	> 1000 nM
N#Cc1cc(F)cc(Oc2ccc3c(c2C#N)[C@@H](O)CS3(=O)=O)c1 [Compound 416]	> 1000 nM	250 to 1000 nM
CS(=O)(=O)c1ccc(OCC2CC2(F)F)c2c1[C@H](O)C(F)(F)[C@@H]2F (some centres unmarked) [Compound 756]	< 50 nM	250 to 1000 nM
Cc1cncc(Oc2ccc3c(c2Br)[C@@H](O)C(F)(F)S3(=O)=O)c1 [Compound 428]	> 1000 nM	> 1000 nM
O=S(=O)(c1ccc(O[C@H]2CCCOC2)c2c1[C@H](O)C(F)(F)C2)C(F)(F)F [Compound 731]	< 50 nM	50 to 249 nM
O=S(=O)(c1ccc(-c2cccc(Cl)c2)c2c1[C@H](O)C(F)(F)C2)C(F)(F)F [Compound 485, (S)-4-(3-chlorophenyl)-2,2-difluoro-7-((trifluoromethyl)sulfonyl)-2,3-dihydro-1H-inden-1-ol]	< 50 nM	> 1000 nM
O=Cc1c(S(=O)(=O)C(F)(F)F)ccc(Oc2cc(F)cc(Cl)c2)c1Br [Compound 101]	< 50 nM	250 to 1000 nM
N#Cc1cc(F)cc(Oc2ccc(S(=O)(=O)C(F)(F)F)c3c2CC(F)(F)[C@H]3NCCO)c1 [Compound 291]	> 1000 nM	> 1000 nM
COc1c(Oc2cc(F)cc(C#N)c2)ccc2c1C(O)C(F)(F)S2(=O)=O (centres unmarked) [Compound 433]	250 to 1000 nM	> 1000 nM
CC1(C)CC[C@@H](O)[C@H](c2ccc(S(=O)(=O)C(F)(F)F)c3c2CC(F)(F)[C@H]3O)C1 [Compound 547]	50 to 249 nM	50 to 249 nM
CS(=N)(=O)c1ccc(Oc2cc(F)cc(F)c2)c2c1C(O)C(F)(F)C2 (centres unmarked) [Compound 192]	50 to 249 nM	250 to 1000 nM
O[C@H]1c2c(C(F)(F)F)ccc(OCCCF)c2[C@H](F)C1(F)F [Compound 701]	50 to 249 nM	> 1000 nM
N#Cc1cncc(Oc2ccc(S(=O)(=O)C(F)F)c3c2CC(F)(F)[C@H]3O)c1 [Compound 27]	250 to 1000 nM	50 to 249 nM
Cc1cc(Oc2cc(F)cc(C#N)c2)c2c(c1S(C)(=O)=O)C(O)C(F)(F)C2 (centres unmarked) [Compound 213]	250 to 1000 nM	250 to 1000 nM
O=S1(=O)c2ccc(Oc3ccc(F)c(F)c3)c(C(F)F)c2[C@@H](O)C1(F)F [Compound 436]	< 50 nM	50 to 249 nM
N#Cc1cc(F)cc(Oc2ccc(S(=N)(=O)C(F)(F)F)c3c2CCC3O)c1 (centres unmarked) [Compound 258]	250 to 1000 nM	> 1000 nM
CS(=N)(=O)c1ccc(Oc2cc(F)cc(F)c2)c2c1C(O)CC2 (centres unmarked) [Compound 190]	250 to 1000 nM	> 1000 nM
C[C@@]1(F)Cc2c(Oc3cc(F)cc(C#N)c3)ccc(S(C)(=O)=O)c2[C@@H]1O [Compound 300]	> 1000 nM	> 1000 nM

SMILES	IC50 [1]	EC50 [2]
CC1(C)CC(c2ccc(S(=O)(=O)C(F)(F)F)c3c2CC(F)(F)[C@H]3O)=CC(O)C1 (some centres unmarked) [Compound 551]	50 to 249 nM	> 1000 nM
O=S(=O)(c1ccc(OCC2CC2(F)F)c2c1[C@H](O)C(F)(F)C2)C(F)(F)F (some centres unmarked) [Compound 728]	< 50 nM	< 50 nM
CS(=O)(=O)c1ccc(Oc2cncc(Cl)c2)c2c1[C@H](O)C(F)(F)C2 [Compound 115]	250 to 1000 nM	250 to 1000 nM
O=S(=O)(c1ccc([C@H]2CCC[C@@H](O)C2)c2c1[C@H](O)C(F)(F)C2)C(F)(F)F [Compound 483]	< 50 nM	250 to 1000 nM
O/N=C1/c2c(C(F)(F)F)ccc(OCC(F)F)c2[C@@H](F)C1(F)F [Compound 669]	50 to 249 nM	250 to 1000 nM
CCOC(=O)/C=C/c1c(S(=O)(=O)C(F)(F)F)ccc(Oc2cc(F)cc(C#N)c2)c1C [Compound 148]	50 to 249 nM	> 1000 nM
NC1c2cc(Oc3cc(F)cc(Cl)c3)ccc2S(=O)(=O)C1(F)F (centres unmarked) [Compound 358]	50 to 249 nM	> 1000 nM
O=S(=O)(c1ccc(O[C@@H]2CCCOC2)c2c1[C@H](O)C(F)(F)C2)C(F)(F)F [Compound 730]	50 to 249 nM	50 to 249 nM
OC1c2c(I)ccc(OCC(F)F)c2CC1(F)F (centres unmarked) [Compound 681]	50 to 249 nM	50 to 249 nM
N#Cc1cc(F)cc(Oc2ccc3c(c2C(F)F)C(O)CS3(=O)=O)c1 (centres unmarked) [Compound 374]	250 to 1000 nM	> 1000 nM
N#Cc1cc(F)cc(Oc2ccc(S(=O)(=O)CF)c3c2CC[C@H]3O)c1 [Compound 62]	< 50 nM	50 to 249 nM
O=S(=O)(c1ccc(Oc2ccc(F)c(Br)c2)c2c1[C@H](O)C(F)(F)C2)C(F)F [Compound 194]	< 50 nM	250 to 1000 nM
N#Cc1c(Oc2cc(F)cc(F)c2)ccc2c1C(O)C(F)S2(=O)=O (centres unmarked) [Compound 390]	> 1000 nM	250 to 1000 nM
CS(=O)(=O)c1ccc(OCC2CC(F)(F)C2)c2c1[C@H](O)C(F)(F)[C@@H]2F [Compound 759]	50 to 249 nM	250 to 1000 nM
O=S(=O)(CF)c1ccc(Oc2cc(F)cc(Cl)c2)c2c1[C@H](O)C(F)(F)C2 [Compound 65]	< 50 nM	< 50 nM
CCOc1ccc(S(=O)(=O)C(F)F)c2c1CC(F)(F)[C@H]2O [Compound 678]	250 to 1000 nM	250 to 1000 nM
N[C@@H]1c2c(ccc(Oc3cc(F)cc(F)c3)c2C(F)F)S(=O)(=O)C1(F)F [Compound 401]	< 50 nM	50 to 249 nM
Cc1cncc(Oc2ccc(S(C)(=O)=O)c3c2CC(F)(F)[C@H]3O)n1 [Compound 201]	< 50 nM	> 1000 nM
CS(=O)(=O)c1ccc(OC[C@H]2C[C@@H]2C#N)c2c1[C@H](O)C(F)(F)[C@@H]2F [Compound 770]	250 to 1000 nM	> 1000 nM
C#Cc1c(Oc2cc(F)cc(C#N)c2)ccc2c1C(O)C(F)(F)S2(=O)=O (centres unmarked) [Compound 409]	50 to 249 nM	50 to 249 nM
CS(=O)(=O)c1ccc(Oc2cc(F)cc(C#N)c2)c(C#N)c1Cl [Compound 152]	250 to 1000 nM	> 1000 nM
O=S(=O)(c1ccc(OC2CCC2)c2c1C(O)C(F)(F)C2)C(F)(F)F (centres unmarked) [Compound 602]	< 50 nM	< 50 nM
N[C@H]1C[C@@H](Oc2ccc(S(=O)(=O)C(F)(F)F)c3c2CC(F)(F)[C@H]3O)C1 [Compound 724]	> 1000 nM	> 1000 nM
O/N=C1/c2c(C(F)(F)F)ccc(OCCCF)c2[C@@H](F)C1(F)F [Compound 581]	< 50 nM	> 1000 nM
O=S(=O)(c1ccc(Oc2cc(Cl)cc(Cl)c2)c(Br)c1)C(F)(F)F [Compound 172]	250 to 1000 nM	> 1000 nM
O=S(=O)(c1ccc(Oc2cncc(F)c2)c2c1[C@H](O)CC2)C(F)F [Compound 5]	250 to 1000 nM	250 to 1000 nM
N#CN=S1(=O)c2ccc(Oc3cc(F)cc(F)c3)c(C(F)F)c2C(O)C1(F)F (centres unmarked) [Compound 397]	< 50 nM	> 1000 nM
